The text below walks through data of ChEMBL document CHEMBL3046907, “Microwave-assisted synthesis of pyrido[1,2-a]benzimidazole derivatives of -aryloxyquinoline and their antimicrobial and antituberculosis activities” (2013).

Holding throughout (assay type): functional
The subject of experiment [1] is Mycobacterium tuberculosis. The experiment in a line: Antitubercular activity against Mycobacterium tuberculosis H37Rv after 28 days by Lowenstein-Jensen method. To be noted: 672 h.
Experiment [2] has as its system Mycobacterium tuberculosis. The experiment in a line: Growth inhibition of Mycobacterium tuberculosis H37Rv at 6.25 ug/ml after 28 days by Lowenstein-Jensen method. To be noted: 672 h, read-out: GI.
The next experiment relates to Candida albicans. The experiment can be described thus: Antifungal activity against Candida albicans MTCC 227 after overnight incubation by broth microdilution method. For orientation: In broth dilution the organism is exposed to a series of concentrations in liquid medium.
Another experiment relates to Aspergillus fumigatus. The experiment in a line: Antifungal activity against Aspergillus fumigatus MTCC 3008 after overnight incubation by broth microdilution method.
For another experiment, the system named is Vibrio cholerae. The experiment in a line: Antibacterial activity against Vibrio cholerae MTCC 3906 after overnight incubation by broth microdilution method.
The subject of a further experiment is Salmonella typhi. The experiment can be described thus: Antibacterial activity against Salmonella enterica subsp. enterica serovar Typhi MTCC 98 after overnight incubation by broth microdilution method.
A further experiment relates to Escherichia coli. The experiment can be described thus: Antibacterial activity against Escherichia coli MTCC 443 after overnight incubation by broth microdilution method.
A further experiment concerns Clostridium tetani. The experiment can be described thus: Antibacterial activity against Clostridium tetani MTCC 449 after overnight incubation by broth microdilution method.
A further experiment concerns Streptococcus pneumoniae. The experiment in a line: Antibacterial activity against Streptococcus pneumoniae MTCC 1936 after overnight incubation by broth microdilution method.
The subject of the next experiment is Bacillus subtilis. The experiment can be described thus: Antibacterial activity against Bacillus subtilis MTCC 441 after overnight incubation by broth microdilution method.

Converted amounts (≈) assume the structure as drawn. Some results are limits rather than exact numbers.

On to `Cc1ccc2nc(Oc3ccc(F)cc3)c(-c3c(C#N)c(N)n4c(nc5ccccc54)c3C#N)cc2c1`, for which the MIC (commonly the least concentration at which growth counts as inhibited) in experiment [1] was 25 µg/mL (≈ 51.6 µM). Moreover, in experiment [2], the inhibition of growth at 6.25 µg/mL is 94%. The MIC99 (usually the lowest concentration that inhibits either 99% of growth or 99% of the strains tested, depending on the study) against Candida albicans came to 250 µg/mL (≈ 516 µM); in the experiment on Aspergillus fumigatus, 500 µg/mL (≈ 1030 µM); in the experiment with Vibrio cholerae, 250 µg/mL (≈ 516 µM); in the experiment on Salmonella typhi, 250 µg/mL (≈ 516 µM); against Escherichia coli, 200 µg/mL (≈ 413 µM); against Clostridium tetani it was 250 µg/mL (≈ 516 µM). The MIC99 in the experiment on Streptococcus pneumoniae came to 200 µg/mL (≈ 413 µM); against Bacillus subtilis it was 250 µg/mL (≈ 516 µM).
Regarding `NNC(=O)c1ccncc1` [ISONIAZID], the minimum inhibitory concentration (MIC) in [1] turned out to be 0.2 µg/mL (≈ 1.46 µM). For the same compound, the inhibition of growth at 6.25 µg/mL in experiment [2] amounted to 99%.
In the case of `COc1ccc2nc(Oc3ccc(F)cc3)c(-c3c(C#N)c(N)n4c(nc5cc(C)ccc54)c3C#N)cc2c1`, 12.5 µg/mL (≈ 24.3 µM) was the least that counted as inhibitory in experiment [1] (MIC). In addition, the inhibition of growth at 6.25 µg/mL in experiment [2] was determined as 96%. The MIC99 is 500 µg/mL (≈ 972 µM) with Candida albicans; 1000 µg/mL (≈ 1940 µM) in the experiment with Aspergillus fumigatus; 200 µg/mL (≈ 389 µM) with Vibrio cholerae; 200 µg/mL (≈ 389 µM) with Salmonella typhi; 100 µg/mL (≈ 194 µM) in the experiment with Escherichia coli; 100 µg/mL (≈ 194 µM) against Clostridium tetani. Further, the MIC99 in the experiment on Streptococcus pneumoniae was determined as 100 µg/mL (≈ 194 µM); against Bacillus subtilis, 250 µg/mL (≈ 486 µM).
Compound `Cc1ccc2c(c1)nc1c(C#N)c(-c3cc4ccccc4nc3Oc3ccc(F)cc3)c(C#N)c(N)n12` yielded an MIC in experiment [1] of 6.25 µg/mL (≈ 12.9 µM). Also, the inhibition of growth at 6.25 µg/mL in [2] was 99%. Also, the MIC99 with Candida albicans is 250 µg/mL (≈ 516 µM); in the experiment with Aspergillus fumigatus, over 1000 µg/mL; against Vibrio cholerae it was 500 µg/mL (≈ 1030 µM); with Salmonella typhi, 125 µg/mL (≈ 258 µM); in the experiment on Escherichia coli, 62.5 µg/mL (≈ 129 µM); in the experiment on Clostridium tetani it was 250 µg/mL (≈ 516 µM). Moreover, the MIC99 in the experiment with Streptococcus pneumoniae turned out to be 100 µg/mL (≈ 206 µM); in the experiment on Bacillus subtilis, 500 µg/mL (≈ 1030 µM).
`Cc1ccc2nc(Oc3ccc(F)cc3)c(-c3c(C#N)c(N)n4c(nc5cc(C)ccc54)c3C#N)cc2c1` displayed an MIC in experiment [1] of 12.5 µg/mL (≈ 25.1 µM). Further, in [2], the inhibition of growth at 6.25 µg/mL was 97%. For the same compound, the MIC99 in the experiment on Candida albicans is over 1000 µg/mL; against Aspergillus fumigatus, over 1000 µg/mL; in the experiment with Vibrio cholerae it was 100 µg/mL (≈ 201 µM); in the experiment with Salmonella typhi, 200 µg/mL (≈ 401 µM); in the experiment on Escherichia coli, 200 µg/mL (≈ 401 µM); against Clostridium tetani it was 100 µg/mL (≈ 201 µM). Besides, the MIC99 against Streptococcus pneumoniae worked out at 200 µg/mL (≈ 401 µM); against Bacillus subtilis it was 250 µg/mL (≈ 501 µM).
On to `CO[C@H]1/C=C/O[C@@]2(C)Oc3c(C)c(O)c4c(O)c(c(/C=N/N5CCN(C)CC5)c(O)c4c3C2=O)NC(=O)/C(C)=C\C=C\[C@H](C)[C@H](O)[C@@H](C)[C@@H](O)[C@@H](C)[C@H](OC(C)=O)[C@@H]1C` [RIFAMPIN], for which, in experiment [1], inhibition of growth (MIC) required 40 µg/mL (≈ 48.6 µM). For the same compound, in [2], the inhibition of growth at 6.25 µg/mL was 98%.
Turning to `COc1ccc(Oc2nc3ccc(OC)cc3cc2-c2c(C#N)c(N)n3c(nc4ccccc43)c2C#N)cc1`, the inhibition of growth at 6.25 µg/mL in experiment [2] is 79%. In addition, the MIC99 was over 1000 µg/mL against Candida albicans; 250 µg/mL (≈ 488 µM) in the experiment on Aspergillus fumigatus; 125 µg/mL (≈ 244 µM) in the experiment on Vibrio cholerae; 200 µg/mL (≈ 390 µM) in the experiment on Salmonella typhi; 125 µg/mL (≈ 244 µM) in the experiment with Escherichia coli; 200 µg/mL (≈ 390 µM) in the experiment on Clostridium tetani. Also, the MIC99 against Streptococcus pneumoniae turned out to be 500 µg/mL (≈ 976 µM); against Bacillus subtilis it was 250 µg/mL (≈ 488 µM).
